The numbers were not newly measured in patent US6045822A, “Liposome preparations of indolocarbazole derivatives description” (Kyowa Hakko Kogyo Co., Ltd., priority 1996, dated 2000), which cites them from elsewhere.

For data set [1] the following is noted: in words; Cancer Res., 51, 4888 (1991).
In data set [2] the test system is protein kinase C. To be noted: in words; J. Antibiotics., 40, 1782 (1987).

Turning to `CNC1CC2OC(C)(C1OC)n1c3ccccc3c3c4c(c5c6ccccc6n2c5c31)C(=O)NC4O` (centres unmarked) [UCN-01], the anti-tumor activity result in data set [1] is listed as “has anti-tumor activity”. Also, in data set [2], the “protein kinase C inhibitory activity” value is on record as “has protein kinase C inhibitory activity”.
